Values quoted from earlier work, collected in patent publication US6927272B2, “Electronic component-use material and electronic component using it” (Matsushita Electric Industrial Co., Ltd., priority 2001, dated 2005).
Like-named read-outs stand apart in the source and are kept apart here.

Conditions: room temperature (20-30° C.)

Compound | Vapor Pressure | Vapor Pressure (cis-form) | Vapor Pressure (trans-form)
Cc1c(COC(=O)[C@@H]2[C@H](/C=C(\Cl)C(F)(F)F)C2(C)C)cccc1-c1ccccc1 (racemic) [bifenthrin] | 24,000 nPa |  | 
Cc1c(F)c(F)c(COC(=O)[C@@H]2[C@H](/C=C(\Cl)C(F)(F)F)C2(C)C)c(F)c1F (racemic) [tefluthrin] | 80,000,000 nPa |  | 
CC1(C)[C@H](C(=O)O[C@H](C#N)c2cccc(Oc3ccccc3)c2)[C@@H]1/C=C\C(=O)OC(C(F)(F)F)C(F)(F)F [acrinathrin] | 390 nPa |  | 
CC1(C)C(C=C(Cl)Cl)C1C(=O)OC(C#N)c1cccc(Oc2ccccc2)c1 (stereo not drawn) [cypermethrin] | 230 nPa |  | 
CC(C)=CC1C(C(=O)OC(C#N)c2cccc(Oc3ccccc3)c2)C1(C)C (stereo not drawn) [cyphenothrin] | 400,000 nPa |  | 
CC(C)=CC1C(C(=O)OCN2C(=O)C3=C(CCCC3)C2=O)C1(C)C (stereo not drawn) [d-tetramethrin] | 320,000 nPa |  | 
CC1(C)[C@H](C(=O)O[C@H](C#N)c2cccc(Oc3ccccc3)c2)[C@@H]1C=C(Br)Br [deltamethrin] | 2,000 nPa |  | 
CC(C)C(C(=O)OC(C#N)c1cccc(Oc2ccccc2)c1)c1ccc(Cl)cc1 (stereo not drawn) [fenvalerate] | 37,000 nPa |  | 
CC(C)[C@H](C(=O)OC(C#N)c1cccc(Oc2ccccc2)c1)c1ccc(OC(F)F)cc1 (stereo partly drawn) [flucythrinate] | 1,200 nPa |  | 
CC1(C)C(C=C(Cl)Cl)C1C(=O)OCc1cccc(Oc2ccccc2)c1 (stereo not drawn) [permethrin] | 45,000 nPa |  | 
CC(C)=CC1C(C(=O)OCc2cccc(Oc3ccccc3)c2)C1(C)C (stereo not drawn) [phenothrin] | 160,000 nPa |  | 
CC(C)=CC1C(C(=O)OCc2coc(Cc3ccccc3)c2)C1(C)C (stereo not drawn) [resmethrin] | 1,500 nPa |  | 
CCOc1ccc([Si](C)(C)CCCc2ccc(F)c(Oc3ccccc3)c2)cc1 [silafluofen] | 731,500 nPa |  | 
CC1(C)[C@H](C(=O)O[C@H](C#N)c2cccc(Oc3ccccc3)c2)[C@@H]1C(Br)C(Br)(Br)Br (stereo partly drawn) [tralomethrin] | 0.017 nPa |  | 
CC1(C)C(C=C(Cl)Cl)C1C(=O)OC(C#N)c1ccc(F)c(Oc2ccccc2)c1 (stereo not drawn) [β-cyfluthrin] |  | cis-form 10/ nPa | 90 nPa
CC1(C)C(/C=C(\Cl)C(F)(F)F)C1C(=O)OC(C#N)c1cccc(Oc2ccccc2)c1 (stereo not drawn) [λ-cyhalothrin] | 200 nPa |  | 
CC(C)[C@@H](Nc1ccc(C(F)(F)F)cc1Cl)C(=O)OC(C#N)c1cccc(Oc2ccccc2)c1 (stereo partly drawn) [τ-fulvalinate] | 13,000 nPa |  | 
